Assay results from patent publication US9408828B2, “(+)-3′-angeloyloxy-4′-keto-3′,4′-dihydroseselin for treating inflammation” (Hong Kong Baptist University, priority 2014, dated 2016).

Key:
iNOS [1] = assay: Western blot of iNOS protein in LPS-stimulated RAW-Blue cells; type: cell-based, murine; settings: LPS 1 μg/mL, 5, 10, 20 μg/mL, 20 h
Experimental: (§1) Data are derived from three independent experiments and presented as mean±SEM. ^#Compared with control group. *P<0.05, **P<0.01 and ***P<0.001 are compared with LPS-alone group.
(§2) After Raw-Blue cells are treated with LPS and Pd-Ib, whole cell extract is prepared with lysis buffer [1% Triton X-100, 0.1% SDS, 0.5% deoxycholate, 1 mM EDTA, 20 mM Tris (pH 7.4), 150 mM NaCl, 10 mM NaF, 1 mM Na3VO4, 0.1 mM phenylmethylsulfonyl fluoride and one protease inhibitor cocktail tablet (Roche, USA)]. Total protein concentration is measured using a protein assay kit, followed by centrifugation at 13,500 rpm for 15 minutes at 4° C., then 10-25 μg of protein from the supernatants is then separated on 10% sodium dodecylsulphate-polyacrylamide gel (SDS-PAGE) and transferred on to polyvinylidene difluoride membranes. After blocking with 5% skim milk powder in Tris-buffered saline-Tween (TBST; 50 mM Tris, 150 mM NaCl, pH 7.4; 0.01% Tween-20) for 1 hour at room temperature, the membrane is then incubated with primary antibody (1:5,000 dilution) in 5% skim milk in TBST overnight at 4° C. […] The membrane is rewashed (TBST; 3×10 min), and the immune-reactive proteins are detected by enhanced chemiluminescence using X-ray film and ECL reagent. The protein bands are quantified by measuring the relative intensity compared to the control using Image J Software (version 4.1.7, NIH, USA).

IL-4 = assay: ELISA of IL-4 in colon tissue, DSS-induced colitis; type: in vivo, C57BL/6 mice; settings: compared with the DSS treatment group; increase in IL-4
Experimental: (§3) Colon levels of cytokines are assayed using commercially available ELISA kits. Briefly, colon samples are homogenized in phosphate buffer containing 0.05% Tween-20, 0.1 mM phenylmethylsulfonyl fluoride, 0.1 mM benzethonium chloride, 10 mM EDTA, and 20 IU aprotinin A. The homogenates are centrifuged at 16000 g at 4° C. for 15 min, and the supernatants are collected for the determination of levels of the cytokines, IL-6, IL-4, TNF-α, and IFN-γ, according to the manufacturer's protocols. The amount of protein in each sample is measured by the Bradford method, using bovine serum albumin as a standard. The levels of each cytokine are evaluated in each sample and expressed in […].
(§4) Colitis is induced in all groups except the control group. Pd-Ib and sulfasalazine are administered to mice from day 6 to day 12. On day 13, the mice are sacrificed, Data are expressed as mean±SEM, n=8 (*p<0.05, **p<0.01, ***p<0.001, compared with DSS model group).

[2] = system: nitric oxide (NO) production in LPS-stimulated RAW-Blue cells; assay: Nitric oxide production determination (Griess reagent); type: cell-based, murine; settings: Mus musculus, LPS 1 μg/mL 20 hours
Experimental: (§5) After macrophages are treated with 1 μg/mL of LPS in absence or presence various concentrations of Pd-Ib (5, 10, 20 μg/mL) for 20 hours, the mRNA levels of iNOS (A), TNF-α (B) and IL-1β (C) are determined by real time PCR, while the production of NO (D) is determined by Griess reagent. Data are derived from three independent experiments and presented as mean±SEM, “con” stands for the vehicle control group. ^#Compared with control group. *P<0.05, **P<0.01 and ***P<0.001 are compared with LPS-alone group.
Nitric oxide (NO) production is indirectly assessed by measuring the nitrite levels in the cultured medium determined by a colorimetric method based on the Griess reagent and sodium nitrite as a standard substance. The cells are pretreated with various concentrations of Pd-Ib (5-20 μg/mL). Two hours later, cells are incubated for another 20 hours in the presence of LPS (1 μg/mL) at 37° C. Then, 100 μL of each supernatant is mixed with the equal volume of Griess reagent. The samples are incubated at room temperature for 15 min. The optical densities are measured at 540 nm with a micro-plate reader and nitrite concentration is determined using a standard curve generated with known concentrations of sodium nitrite.

RAW-Blue cells = assay: Cell viability (MTT) assay; type: cell-based, murine; settings: 24 hours
Experimental: Cells are cultured for 24 hours in the presence of Pd-Ib at the concentrations indicated, from 1.25-100 μg/mL. Cell viability is assessed using MTT assay. Data are derived from three independent experiments and presented as mean±SEM. “con” stands for the vehicle control group.
Cells (5×10^4) are cultured in 96-well plates for 24 hours. Then cells are cultured with various concentrations of Pd-Ib (1.25, 2.5, 5, 10, 20, 40, 80, 100 μg/mL) for 24 hours. After that, 10 μL of 5 mg/mL MTT is added to each well, and the cells are cultured in the dark for 3 hours. The medium is then discarded, and 100 μL of dimethyl sulfoxide (DMSO) is added into each well. After 15 min incubation, the optical density at 570 nm is read by using a micro-plate reader to determine the cell viability.

TNF-α = assay: Real-time PCR of TNF-α mRNA in LPS-stimulated RAW-Blue cells; type: cell-based, murine; settings: LPS 1 μg/mL, 5, 10, 20 μg/mL, 20 hours
Experimental: as §5
(§6) Raw-Blue cells are plated at 20×10^5 cells/well in 12-well plate. After 24 hours of incubation, cells are pretreated with various concentrations (5-20 μg/mL) of Pd-Ib for 2 hours, followed by co-culturing with LPS (1 μg/mL) for 20 hours. Total RNA of Raw-Blue cells is extracted by Trizol reagent. Two micrograms (2 μg) of total RNA are reverse-transcribed with RT master mix to obtain cDNA. Real-time PCR is performed in a ViiA7 real-time PCR instrument (Applied Biosystems, Life Technologies, CA, USA) with the SYBR Green kit. A melting curve analysis is carried out after amplification to verify the accuracy of the amplicon. The comparative cycle of threshold (ΔΔCT) method of relative quantification is used to determine the fold-change in expression. Primer sequences for mRNA analysis of IL-1β, TNF-α, iNOS and β-Actin are described in Table 1.

COX-2 = assay: Western blot of COX-2 protein in LPS-stimulated RAW-Blue cells; type: cell-based, murine; settings: LPS 1 μg/mL, 5, 10, 20 μg/mL, 20 h
Experimental: as §1, §2

IFN-γ = assay: ELISA of IFN-γ in colon tissue, DSS-induced colitis; type: in vivo, C57BL/6 mice; settings: compared with the DSS treatment group
Experimental: as §3, §4

IL-1β = assay: Real-time PCR of IL-1β mRNA in LPS-stimulated RAW-Blue cells; type: cell-based, murine; settings: LPS 1 μg/mL, 5, 10, 20 μg/mL, 20 hours
Experimental: as §5, §6

IL-6 = assay: ELISA of IL-6 in colon tissue, DSS-induced colitis; type: in vivo, C57BL/6 mice; settings: compared with the DSS treatment group
Experimental: as §3, §4

iNOS [3] = assay: Real-time PCR of iNOS mRNA in LPS-stimulated RAW-Blue cells; type: cell-based, murine; settings: LPS 1 μg/mL, 5, 10, 20 μg/mL, 20 hours
Experimental: as §5, §6

`C/C=C(\C)C(=O)OC1C(=O)c2c(ccc3ccc(=O)oc23)OC1(C)C` (single isomer, unassigned; (+)) [Pd-Ib, (+)-3′-Angeloyloxy-4′-keto-3′,4′-dihydroseselin] was tested, and the iNOS protein level (iNOS [1]) was “strongly down-regulates”, the “production of IL-4 in colon tissue” value (IL-4) was “significant effect on the production of IL-4 in a dose-dependent manner” and the inhibition at 5 µg/mL ([2]; 5 μg/mL) was 17.6 ± 2.96%. For the same compound, the inhibition at 10 µg/mL ([2]; 10 μg/mL) was 29.8 ± 1.34%, the inhibition at 20 µg/mL ([2]; 20 μg/mL) was 55.5 ± 1.15% and the cytotoxic effect (RAW-Blue cells; 1.56 to 20 μg/mL) was “does not exhibit cytotoxic effect”. The cell viability (RAW-Blue cells; 40, 80, and 100 μg/mL) was “cell viability is reduced”, the “mRNA expression of TNF-α” value (TNF-α) was “inhibit the mRNA expressions of TNF-α and IL-1β in a dose-dependent manner” and the COX-2 protein level (COX-2) was “strongly down-regulates”. The “production of IFN-γ in colon tissue” value (IFN-γ) was “greatly reduces the production”, the “mRNA expression of IL-1β” value (IL-1β) was “inhibit the mRNA expressions of TNF-α and IL-1β in a dose-dependent manner” and the “production of IL-6 in colon tissue” value (IL-6) was “greatly reduces the production”. The “mRNA level of iNOS” value (iNOS [3]) was “remarkedly inhibits the mRNA level of iNOS in a dose-dependent manner”.
